Reference: the PolyMetriX glass transition set
± gives the standard deviation of the reports.

Compound | glass transition temperature [°C]
*C(=O)c1ccc2c(c1)C(=O)N(c1cc(-c3nc4ccccc4[nH]3)cc(N3C(=O)c4ccc(*)cc4C3=O)c1)C2=O (repeat unit) | 197.00
*Oc1ccc(C(C)(C)c2ccc(OC(=O)CN(CC(*)=O)c3ccc(/N=N/c4ccc([N+](=O)[O-])cc4)cc3)cc2)cc1 (repeat unit) | 152.00
*CCCCCCCCCCCOC(=O)c1ccc(-c2ccc(C(=O)O*)cc2)cc1 (repeat unit) | 49.00
*CCCCCCCCCNC(=O)N* (repeat unit) | 130.00
*c1ccc(/C=C(\C#N)C(=O)NC2CCCCC2NC(=O)/C(C#N)=C/c2ccc(N(c3ccccc3)c3ccc(N(*)c4ccccc4)cc3)cc2)cc1 (repeat unit) | 239.00
*C(=O)CCCCCCCCC(=O)NC1CCCCN(*)C1 (repeat unit) | -46.50
*C(=O)Nc1ccc(Oc2ccccc2-c2ccccc2Oc2ccc(NC(=O)c3ccc4c(c3)C(=O)N(c3cccc(N5C(=O)c6ccc(*)cc6C5=O)c3)C4=O)cc2)cc1 (repeat unit) | 237.00
*/C(C)=C(/*)SCCCCCCCCCC (repeat unit) | 60.00
*c1ccc(Oc2ccc(Oc3ccc(Oc4ccc(-n5c(=O)c6cc7c(=O)n(*)c(=O)c7cc6c5=O)cc4)cc3)cc2)cc1 (repeat unit) | 295.00
*O[Si](*)(C)CCCCCCOc1ccc(C(=O)Oc2ccc(C#N)cc2)cc1 (repeat unit) | 8.00
*C(=O)Nc1cc(NC(=O)c2cncc(*)c2)cc(-c2nnc(-c3ccccn3)o2)c1 (repeat unit) | 185.00
*Oc1ccc(N[Se]Nc2ccc(*)cc2)cc1 (repeat unit) | 55.00
*OC1C(COC(=O)Nc2ccccc2)OC(*)C(OC(=O)Nc2ccccc2)C1OC(=O)Nc1ccccc1 (repeat unit) | 217.00
*c1ccc(Oc2ccc(Oc3ccc(-c4cnc5ccc(-c6ccc7nc(*)cnc7c6)cc5n4)cc3)cc2)cc1 (repeat unit) | 235.00
*c1ccc(OCC2CCC(COc3ccc(-n4c(=O)c5cc6c(=O)n(*)c(=O)c6cc5c4=O)cc3)CC2)cc1 (repeat unit) | 306.70
*CCCCCCNC(=O)c1ccc(C(=O)N*)c(Oc2ccc(Cl)cc2)c1 (repeat unit) | 112.00
*CCN(CCOC(=O)c1cc(OCCN(C)c2ccc(S(=O)(=O)CCCCCCCC)cc2)cc(C(=O)O*)c1)c1ccc(S(=O)(=O)C(F)(F)C(F)(F)C(F)(F)C(F)(F)C(F)(F)C(F)(F)C(F)(F)C(F)(F)F)cc1 (repeat unit) | 80.00
*SC1CCCCC1* (repeat unit) | -43.00
*C(=O)Nc1ccc(NC(=O)c2ccc3c(c2)C(=O)N(c2cccc(N4C(=O)c5ccc(*)cc5C4=O)c2)C3=O)cc1 (repeat unit) | 341.00
*CCCCCCCCCCNC(=O)c1ccc(Cc2ccc(C(=O)N*)cc2)cc1 (repeat unit) | 140.00
*C(=O)Nc1ccc(-c2sc(-c3ccc(NC(=O)c4ccc5c(c4)C(=O)N(c4ccc(Oc6ccc7ccc(Oc8ccc(N9C(=O)c%10ccc(*)cc%10C9=O)cc8)cc7c6)cc4)C5=O)cc3)c(-c3ccccc3)c2-c2ccccc2)cc1 (repeat unit) | 311.00
*CC(C)(C)COC(=O)c1ccc(-c2ccc(C(=O)O*)cc2)cc1 (repeat unit) | 101.00

Compound | glass transition temperature [°C]
*Oc1ccc(OC(=O)c2cc(OCCCCCCCCCCCC)c(C(*)=O)cc2OCCCCCCCCCCCC)cc1-c1ccccc1 (repeat unit) | 96.00
*Oc1ccc(Oc2ccc(/C(=N\c3ccccc3)c3ccc(Oc4ccc(Oc5cccc(*)n5)cc4)cc3)cc2)cc1 (repeat unit) | 135.00
*C(=O)c1ccc2c(c1)C(=O)N(c1ccc(C(C)(C)c3cccc(C(C)(C)c4ccc(N5C(=O)c6ccc(*)cc6C5=O)cc4)c3)cc1)C2=O (repeat unit) | 316.50
*CC(SS*)c1ccccc1 (repeat unit) | 4.80
*C1C(=O)OC(=O)C1C1C2CC(C(=O)OC3CCCCC3)C(C2)C1* (repeat unit) | 195.00
*Oc1ccc(C(C)(C)c2ccc(Oc3ccc(C(=O)c4ccc(*)c(S(=O)(=O)O)c4)cc3S(=O)(=O)O)cc2)cc1 (repeat unit) | 175.00
*CC(CCCCCCOc1ccc(/N=N/c2ccc(Cl)cc2)cc1)COC(=O)CCCCC(=O)O* (repeat unit) | 9.00
*CCN(CCOC(=O)Nc1ccc(C)c(NC(=O)O*)c1)c1ccc(/N=N/c2ccc(/C=C/c3nc4ccc([N+](=O)[O-])cc4n3CC)cc2)cc1 (repeat unit) | 171.00
*Oc1ccc(OC(=O)/C=C/c2ccc(/C=C/C(*)=O)cc2)cc1 (repeat unit) | 210.00
*CCCOCCCCOCCCN1C(=O)c2ccc(C(=O)Oc3ccc4cc(OC(=O)c5ccc6c(c5)C(=O)N(*)C6=O)ccc4c3)cc2C1=O (repeat unit) | 68.00
*c1ccc([Si](*)(C)C)s1 (repeat unit) | 21.00
*CCN(*)C(=O)c1ccc(SC(F)(F)F)cc1 (repeat unit) | 100.00
*CCCCO* (repeat unit) [Poly(tetramethylene glycol)] | -83.6 ± 2.2
*Nc1ccc(C(c2ccc(NC(=O)c3cc(C(*)=O)cc(C(C)(C)C)c3)cc2)(C(F)(F)F)C(F)(F)F)cc1 (repeat unit) | 284.10
*c1ccc2c(c1)C(=O)N(c1ccc(C(=O)Nc3ccc(Oc4ccc(C(c5ccc(Oc6ccc(NC(=O)c7ccc(N8C(=O)c9ccc(C(*)(C(F)(F)F)C(F)(F)F)cc9C8=O)cc7)cc6)cc5)(C(F)(F)F)C(F)(F)F)cc4)cc3)cc1)C2=O (repeat unit) | 293.00
*c1ccc2c(c1)Sc1cc(-c3sc4cc(*)sc4c3CCCCC)ccc1N2CCCCCCCCCC (repeat unit) | 131.00
*CCCCOc1ccc(/C=C2\CC/C(=C\c3ccc(OCCCCOP(=O)(O*)OCC)c(OC)c3)C2=O)cc1OC (repeat unit) | 79.00
*c1ccc(Oc2ccc(C(=O)c3ccc(Oc4ccc(N5C(=O)c6ccc(Oc7ccc8c(c7)C(=O)N(*)C8=O)cc6C5=O)cc4)cc3)cc2)cc1 (repeat unit) | 243.00
*CC(*)(C)C(=O)OCC(CC)CCCC (repeat unit) | -10.00
*C(=O)c1ccc2c(c1)C(=O)N(c1c(C)cc(Cc3cc(C)c(N4C(=O)c5ccc(*)cc5C4=O)c(C)c3)cc1C)C2=O (repeat unit) | 320.00 ± 16
*c1ccc(-c2nnc(*)o2)c(OCC)c1 (repeat unit) | 231.00
*CCCCCCCCCCCCCCNC(=O)NCCCCCCNC(=O)N* (repeat unit) | 47.00

Compound | glass transition temperature [°C]
*CCCCCCCCCCOc1ccc(/C=C/c2ccc(OCCCCCCCCCCOP(=O)(O*)OCCCCCCCCCCOc3ccc(/N=N/c4ccc([N+](=O)[O-])cc4)cc3)cc2)cc1 (repeat unit) | 50.00
*c1ccc2c(c1)Sc1cc(-c3ccc(-c4ccc(*)s4)s3)ccc1N2CCCCCCCCCC (repeat unit) | 142.00
*CCCCCOC(=O)Nc1ccc(Cc2ccc(NC(=O)O*)cc2)cc1 (repeat unit) | 95.00
*c1ccc(Oc2ccc(/C=C/c3ccc(Oc4ccc(-c5nnc(*)o5)cc4)c4ccccc34)cc2)cc1 (repeat unit) | 213.00
*C(=O)c1ccc2c(c1)C(=O)N(c1ccc(Cc3ccc(Cc4ccc(N5C(=O)c6ccc(*)cc6C5=O)cc4)cc3)cc1)C2=O (repeat unit) | 347.00
*c1ccc(Oc2cccc(N3C(=O)c4ccc(Oc5ccc6c(c5)C(=O)N(*)C6=O)cc4C3=O)c2)cc1 (repeat unit) | 232.00 ± 18
*Oc1cccc(Oc2ccc(NC(=O)c3cc(NC(=O)c4ccc(OC(C)=O)cc4)cc(C(=O)Nc4ccc(*)cc4)c3)cc2)c1 (repeat unit) | 230.00
*Oc1ccc(-c2ccc(Oc3ccc(Oc4ccc(Oc5ccc(*)cc5)cc4)cc3)c3ccccc23)c2ccccc12 (repeat unit) | 147.00
*Oc1ccc(C(=O)Nc2cc(C(c3ccc(C)c(NC(=O)c4ccc(OC(=O)c5cccc(C(*)=O)c5)cc4)c3)(C(F)(F)F)C(F)(F)F)ccc2C)cc1 (repeat unit) | 214.00
*=Nc1cccc(S(=O)(=O)c2cccc(/N=C3/OC(=O)c4ccc(Oc5ccc6c(c5)C(=O)OC6=*)cc43)c2)c1 (repeat unit) | 190.00
*C(=O)Nc1ccc(Cc2ccc(NC(=O)c3ccc4c(c3)C(=O)N(c3ccc(Oc5ccc6ccc(Oc7ccc(N8C(=O)c9ccc(*)cc9C8=O)cc7)cc6c5)cc3)C4=O)cc2)cc1 (repeat unit) | 273.00
*Nc1ccc(Cc2ccc(NC(=O)c3cc(NC(=O)CCCCCCCCCCN4C(=O)c5ccccc5C4=O)cc(C(*)=O)c3)cc2)cc1 (repeat unit) | 150.00
*C(=O)Nc1cccc(NC(=O)/C=C/c2cccc(N3C(=O)c4ccc(*)cc4C3=O)c2)c1 (repeat unit) | 257.50
*CCCCSS* (repeat unit) | -55.00
*CC(*)c1ccc(Cl)cc1C (repeat unit) | 145.00
*N=P(*)(C)c1ccccc1 (repeat unit) | 37.00
*c1ccc(C2(c3ccc(-c4cc(-c5ccccc5)c5cc(C6(c7ccc8nc(*)cc(-c9ccccc9)c8c7)c7ccccc7C(=O)c7ccccc76)ccc5n4)cc3)c3ccccc3C(=O)c3ccccc32)cc1 (repeat unit) | 390.00
*c1ccc(OCCOCCOc2cccc(N3C(=O)c4ccc(Oc5ccc6c(c5)C(=O)N(*)C6=O)cc4C3=O)c2)cc1 (repeat unit) | 146.50
*Oc1ccc(C(C)(C)c2ccc(Oc3ccc4c(=O)n5c6cc(Oc7ccc8c(c7)nc7c9ccc(*)c%10cccc(c(=O)n87)c%109)ccc6nc5c5cccc3c45)cc2)cc1 (repeat unit) | 334.00
*c1ccc(OCOc2ccc(-c3nc(-c4ccc([N+](=O)[O-])cc4)oc3*)cc2)cc1 (repeat unit) | 194.00
